Source: US20120142646A1, “Novel Compounds 621” (priority 2006, published 2012)

What was measured:
[1] = target: T1, recombinant human adrenergic beta 1 receptors (Homo sapiens, UniProt P08588); experiment: Adrenergic β1 [125I]-Iodocyanopindolol binding; conditions: inhibition of [125I]-Iodocyanopindolol binding (0.036 nM); read-out: β1 bind p IC50 (converted)
T1 construct: purchased Euroscreen
Procedure: (§1) Membranes containing recombinant human adrenergic beta 1 receptors were obtained from Euroscreen. These were diluted in Assay Buffer (50 mM HEPES, 1 mM EDTA, 120 mM NaCl, 0.1% gelatin, pH 7.4) to provide a final concentration of membranes that gave a clear window between maximum and minimum specific binding.
Assays were performed in U-bottomed 96-well polypropylene plates. 10 μL [^125I]-Iodocyanopindolol (0.036 nM final concentration) and 10 μL of test compound (10× final concentration) were added to each test well. For each assay plate 8 replicates were obtained for [^125I]-Iodocyanopindolol binding in the presence of 10 μL vehicle (10% (v/v) DMSO in Assay Buffer; defining maximum binding) or 10 μL Propranolol (10 μM final is concentration; defining non-specific binding (NSB)). Membranes were then added to achieve a final volume of 100 μL. […] Five washes with 250 μL wash buffer (50 mM HEPES, 1 mM EDTA, 120 mM NaCl, pH 7.4) were performed at 4° C. to remove unbound radioactivity. […] The plates were sealed (TopSeal A) and filter-bound radioactivity was measured with a scintillation counter (TopCount, Packard BioScience) using a 3-minute counting protocol.
(§2) Total specific binding (B0) was determined by subtracting the mean NSB from the mean maximum binding. […]

[2] = target: T2, recombinant human Dopamine Subtype D2s receptors (Homo sapiens, UniProt P14416); experiment: Dopamine D2 [3H]-spiperone binding; conditions: inhibition of [3H]-spiperone binding (0.16 nM); read-out: D2 bind pIC50 (converted)
T2 construct: purchased Perkin Elmer
T2 sequence (P14416 1-414 isoform P14416-2): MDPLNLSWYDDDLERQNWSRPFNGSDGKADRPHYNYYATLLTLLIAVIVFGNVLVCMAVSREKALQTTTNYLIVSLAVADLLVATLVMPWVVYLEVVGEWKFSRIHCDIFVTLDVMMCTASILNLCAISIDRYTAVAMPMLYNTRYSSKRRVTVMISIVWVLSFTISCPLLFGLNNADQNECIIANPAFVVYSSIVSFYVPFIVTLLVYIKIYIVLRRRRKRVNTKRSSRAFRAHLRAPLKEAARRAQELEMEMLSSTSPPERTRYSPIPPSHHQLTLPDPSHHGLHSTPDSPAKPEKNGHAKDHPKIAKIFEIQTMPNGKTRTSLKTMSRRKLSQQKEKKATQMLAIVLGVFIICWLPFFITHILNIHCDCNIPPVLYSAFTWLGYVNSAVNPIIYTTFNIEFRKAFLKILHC
Procedure: as §1, with “Dopamine Subtype D2s” for “adrenergic beta 1”, “Perkin Elmer.” for “Euroscreen.”
Assays were performed in U-bottomed 96-well polypropylene plates. 30 μL [^3H]-spiperone (0.16 nM final concentration) and 30 μL of test compound (10× final concentration) were added to each test well. For each assay plate 8 replicates were obtained for [^3H]-spiperone binding in the presence of 30 μL vehicle (10% (v/v) DMSO in Assay Buffer; defining maximum binding) or 30 μL Haloperidol (10 μM final concentration; defining non-specific binding (NSB)). Membranes were then added to achieve a final volume of 300 μL. […] Five washes with 250 μL wash buffer (50 mM HEPES, 1 mM EDTA, 120 mM NaCl, pH 7.4) were performed at 4° C. to remove unbound radioactivity. […] The plates were sealed (TopSeal A) and filter-bound radioactivity was measured with a scintillation counter (TopCount, Packard BioScience) using a 3-minute counting protocol.
as §2

[3] = target: T3, recombinant human α1D receptor (Homo sapiens, UniProt P25100); experiment: Adrenergic α1D [3H]-prazosin binding, HEK293 membranes; conditions: inhibition of [3H]-prazosin binding (0.3 nM), read-out: α1 bind pIC50 (converted)
T3 construct: expressed in transfected cells; host or cells: HEK293
T3 sequence (P25100 1-572): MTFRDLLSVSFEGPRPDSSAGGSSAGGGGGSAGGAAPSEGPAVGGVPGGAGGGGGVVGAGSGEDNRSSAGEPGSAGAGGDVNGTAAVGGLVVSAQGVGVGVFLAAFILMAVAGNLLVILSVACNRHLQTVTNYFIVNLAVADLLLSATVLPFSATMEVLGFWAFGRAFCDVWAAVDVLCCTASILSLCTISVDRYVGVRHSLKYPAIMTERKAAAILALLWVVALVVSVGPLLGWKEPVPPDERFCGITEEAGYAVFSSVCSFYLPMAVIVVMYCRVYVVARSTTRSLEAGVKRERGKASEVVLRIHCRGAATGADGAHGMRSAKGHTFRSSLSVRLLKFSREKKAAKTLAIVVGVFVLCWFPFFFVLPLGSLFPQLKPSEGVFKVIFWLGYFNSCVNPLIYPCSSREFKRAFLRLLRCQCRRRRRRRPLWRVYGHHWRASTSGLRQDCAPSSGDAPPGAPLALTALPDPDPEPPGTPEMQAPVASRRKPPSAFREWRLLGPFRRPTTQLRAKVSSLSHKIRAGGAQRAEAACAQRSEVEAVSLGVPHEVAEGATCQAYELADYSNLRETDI
Procedure: Membranes were prepared from human embryonic kidney 293 (HEK293) cells expressing recombinant human α1D receptor. These were diluted in Assay Buffer (50 mM HEPES, 1 mM EDTA, pH 7.4) to provide a final concentration of membranes that gave a clear window between maximum and minimum specific binding.
Assays were performed in U-bottomed 96-well polypropylene plates. 10 μL [^3H]-prazosin (0.3 nM final concentration) and 10 μL of test compound (10× final concentration) were added to each test well. For each assay plate 8 replicates were obtained for [^3H]-prazosin binding in the presence of 10 μL vehicle (10% (v/v) DMSO in Assay Buffer; defining maximum binding) or 10 μL BMY7378 (10 μM final concentration; defining non-specific binding (NSB)). Membranes were then added to achieve a final volume of 100 μL. The plates were incubated for 2 hours at room temperature and then filtered onto PEI coated GF/B filter plates, pre-soaked for 1 hour in Assay Buffer, using a 96-well plate Tomtec cell harvester. Five washes with 250 μL wash buffer (50 mM HEPES, 1 mM EDTA, pH 7.4) were performed at 4° C. to remove unbound radioactivity. […] The plates were sealed (TopSeal A) and filter-bound radioactivity was measured with a scintillation counter (TopCount, Packard BioScience) using a 3-minute counting protocol.
as §2

T1 sequence (P08588 whole entry): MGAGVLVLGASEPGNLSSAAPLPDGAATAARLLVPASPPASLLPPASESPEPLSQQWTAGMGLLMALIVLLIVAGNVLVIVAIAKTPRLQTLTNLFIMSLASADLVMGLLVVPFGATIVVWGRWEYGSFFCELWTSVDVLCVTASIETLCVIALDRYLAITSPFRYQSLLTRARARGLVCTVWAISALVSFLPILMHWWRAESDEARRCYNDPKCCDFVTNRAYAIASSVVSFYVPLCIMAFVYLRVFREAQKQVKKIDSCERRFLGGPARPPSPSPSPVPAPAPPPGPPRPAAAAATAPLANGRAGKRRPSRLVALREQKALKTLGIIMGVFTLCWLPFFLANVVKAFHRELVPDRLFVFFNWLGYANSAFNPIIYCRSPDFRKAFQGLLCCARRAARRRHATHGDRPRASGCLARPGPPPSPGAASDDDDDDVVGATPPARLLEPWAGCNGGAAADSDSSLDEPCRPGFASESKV

## CCCCC[C@@H](C)N(CCNCCc1ccc(O)c2c1OCC(=O)N2)C(=O)CCNCCc1ccccc1 [Example 60, (R)—N-(Heptan-2-yl)-N-(2-(2-(5-hydroxy-3-oxo-3,4-dihydro-2H-benzo[b][1,4]oxazin-8-yl)ethylamino)ethyl)-3-(phenethylamino)propanamide bis(trifluoroacetate)]
[1]
  IC50: 2510 nM
[2]
  IC50: 50.1 nM
[3]
  IC50: 100 nM
